Test results from US11014904B2, “1,2,4-triazine-3-amine derivative, preparation method therefor, and use thereof in medicine” (Jiangsu Hengrui Medicine Co., Ltd., priority 2017, dated 2021).

Legend:
Assay type in all cases: cell-based
[1] = biological target: T1, adenosine A2a receptor (A2aR) (Homo sapiens, UniProt P29274); assay: Inhibition of the adenosine A2a receptor cAMP signaling pathway in CHO-K1/A2aR cells (HTRF); conditions: CHO-K1/A2aR cells, cAMP, NECA 20 nM; Table 1
T1 construct: expressed in transfected cells; host or cells: CHO-K1
T1 sequence (P29274 whole entry): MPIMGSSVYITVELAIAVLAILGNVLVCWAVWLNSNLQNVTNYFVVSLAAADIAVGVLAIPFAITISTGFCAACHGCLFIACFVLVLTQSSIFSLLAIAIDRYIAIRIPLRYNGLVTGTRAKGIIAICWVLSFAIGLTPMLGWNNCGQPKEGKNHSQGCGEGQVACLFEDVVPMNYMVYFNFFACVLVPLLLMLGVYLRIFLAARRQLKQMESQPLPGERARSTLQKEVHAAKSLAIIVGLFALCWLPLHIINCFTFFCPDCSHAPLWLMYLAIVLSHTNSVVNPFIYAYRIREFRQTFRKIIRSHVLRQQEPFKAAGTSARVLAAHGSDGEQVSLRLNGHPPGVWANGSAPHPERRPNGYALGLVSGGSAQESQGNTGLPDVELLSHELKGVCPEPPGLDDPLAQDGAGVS
From the text: (§1) Determination of the inhibition activity of the compounds of the present invention on the adenosine A2a receptor (A2aR) cAMP signaling pathway, the adenosine A2b receptor (A2bR) cAMP signaling pathway, the adenosine A1 receptor (A1R) cAMP signaling pathway and the adenosine A3 receptor (A3R) cAMP signaling pathway.
(§2) The inhibition activity of the compounds of the present invention on the adenosine A2a receptor (A2aR) cAMP signaling pathway, the adenosine A2b receptor cAMP signaling pathway, the adenosine A1 receptor cAMP signaling pathway and the adenosine A3 receptor cAMP signaling pathway was determined by the following method. The experimental method is briefly described as follows:
2.1 Adenosine A2a receptor
CHO-K1/A2aR cells were cultured in DMEM/F12 medium containing 10% fetal bovine serum and 800 μg/ml bleomycin. The cells were digested with the cell separation buffer during the experiment. The cells were resuspended in the balanced salt buffer containing 20 mM HEPES and 0.1% bovine serum albumin and counted, and the cell density was adjusted to 10^6 cells/ml. In the 384-well plate, each well was added with 5 μl of cell suspension, and 2.5 μl of test compound (4× concentration) formulated with the balanced salt buffer containing 20 mM HEPES, 0.1% bovine serum albumin, 54 μM rolipram and 2.7 U/ml adenosine deaminase, and the plate was incubated at room temperature for 30 minutes. Each well was then added with 2.5 μl of […] (4× concentration) formulated with the balanced salt buffer containing 20 mM HEPES, 0.1% bovine serum albumin, 54 μM rolipram and 2.7 U/ml adenosine deaminase, and the plate was incubated at room temperature for 30 minutes. The final concentrations of the compounds were: 10000, 2000, 400, 80, 16, 3.2, 0.64, 0.128, 0.0256, 0.00512, and 0.001024 nM. The final concentration of […] was 20 nM. Intracellular cAMP concentration was detected with the cAMP dynamic 2 kit. cAMP-d2 and Anti-cAMP-Eu-Cryptate were diluted respectively with the cAMP lysis buffer at a ratio of 1:4. Each well was added with 5 μl of diluted cAMP-d2, followed by addition of 5 μl of diluted Anti-cAMP-Eu-Cryptate, and the plate was incubated at room temperature in the dark for 1 hour. The HTRF signal values were read by the PHERAstar multi-function microplate reader.

[2] = biological target: T2, adenosine A1 receptor (A1R) (Homo sapiens, UniProt P30542); assay: Inhibition of the adenosine A1 receptor cAMP signaling pathway in CHO-K1/A1R cells (HTRF); conditions: for IC50: CHO-K1/A1R cells, cAMP, forskolin 10 μM, CPA 10 nM; for IC50 ratio (A1R/A2aR): selectivity A1R over A2aR
T2 construct: expressed in transfected cells; host or cells: CHO-K1
T2 sequence (P30542 1-326): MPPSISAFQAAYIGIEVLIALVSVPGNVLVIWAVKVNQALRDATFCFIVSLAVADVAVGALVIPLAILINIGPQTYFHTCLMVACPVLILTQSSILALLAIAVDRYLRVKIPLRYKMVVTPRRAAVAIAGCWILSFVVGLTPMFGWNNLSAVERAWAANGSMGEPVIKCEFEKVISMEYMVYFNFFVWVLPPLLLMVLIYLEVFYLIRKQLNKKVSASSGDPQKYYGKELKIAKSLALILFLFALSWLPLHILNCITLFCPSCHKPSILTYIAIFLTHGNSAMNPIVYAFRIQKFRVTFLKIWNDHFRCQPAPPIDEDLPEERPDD
From the text: as §1, §2
2.3 Adenosine A1 Receptor
CHO-K1/A1R cells were cultured in DMEM/F12 medium containing 10% fetal bovine serum and 1 mg/ml G418. The cells were digested with the cell separation buffer during the experiment. The cells were then resuspended in the balanced salt buffer containing 20 mM HEPES and 0.1% bovine serum albumin and counted, and the cell density was adjusted to 5×10^5 cells/ml. In the 384-well plate, each well was added with 12.5 μl of cell suspension, and 6.25 μl of test compound (4× concentration) formulated with the balanced salt buffer containing 20 mM HEPES, 0.1% bovine serum albumin, 54 μM rolipram and 2.7 U/ml adenosine deaminase, and the plate was incubated at room temperature for 30 minutes. Each well was then added with 6.25 μl of forskolin and N6-cyclopentyladenosine (4× concentration) formulated with the balanced salt buffer containing 20 mM HEPES, 0.1% bovine serum albumin, 54 μM rolipram and 2.7 U/ml adenosine deaminase, and the plate was incubated at room temperature for 30 minutes. The final concentrations of the compounds were: 100000, 10000, 1000, 100, 10, 1, 0.1 and 0 nM. The final concentrations of forskolin was 10 μM. The final concentrations of CPA was 10 nM. Intracellular cAMP concentration was detected with the cAMP dynamic 2 kit. cAMP-d2 and Anti-cAMP-Eu-Cryptate were diluted respectively with the cAMP lysis buffer at a ratio of 1:4. Each well was added with 12.5 μl of diluted cAMP-d2, followed by addition of 12.5 μl of diluted Anti-cAMP-Eu-Cryptate, and the plate was incubated at room temperature in the dark for 1 hour. The HTRF signal values were read by the PHERAstar multi-function microplate reader.

[3] = biological target: T3, adenosine A3 receptor (A3R) (Homo sapiens, UniProt P0DMS8); assay: Inhibition of the adenosine A3 receptor cAMP signaling pathway in CHO-K1/A3R cells (HTRF); conditions: for IC50: CHO-K1/A3R cells, cAMP, forskolin 10 μM, 2Cl-IB-MECA 5 nM; for IC50 ratio (A3R/A2aR): selectivity A3R over A2aR
T3 construct: expressed in transfected cells; host or cells: CHO-K1
T3 sequence (P0DMS8 1-318): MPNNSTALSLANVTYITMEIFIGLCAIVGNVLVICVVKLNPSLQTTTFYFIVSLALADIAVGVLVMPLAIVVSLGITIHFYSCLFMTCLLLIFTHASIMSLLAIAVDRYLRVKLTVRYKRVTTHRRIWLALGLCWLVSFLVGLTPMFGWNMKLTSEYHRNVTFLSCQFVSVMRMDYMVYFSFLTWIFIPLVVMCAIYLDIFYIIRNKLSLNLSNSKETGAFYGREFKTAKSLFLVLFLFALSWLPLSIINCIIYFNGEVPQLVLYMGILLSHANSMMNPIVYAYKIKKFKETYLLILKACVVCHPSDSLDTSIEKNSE
From the text: as §1, §2
2.4 Adenosine A3 Receptor
CHO-K1/A3R cells were cultured in DMEM/F12 medium containing 10% fetal bovine serum and 10 μg/ml puromycin. The cells were digested with the cell separation buffer during the experiment. The cells were resuspended in the balanced salt buffer containing 20 mM HEPES and 0.1% bovine serum albumin and counted, and the cell density was adjusted to 5×10^5 cells/ml. In the 384-well plate, each well was added with 12.5 μl of cell suspension, and 6.25 μl of test compound (4× concentration) formulated with the balanced salt buffer containing 20 mM HEPES, 0.1% bovine serum albumin, 54 μM rolipram and 2.7 U/ml adenosine deaminase, and the plate was incubated at room temperature for 30 minutes. Each well was then added with 6.25 μl of forskolin and 2Cl-IB-MECA (4× concentration) formulated with the balanced salt buffer containing 20 mM HEPES, 0.1% bovine serum albumin, 54 μM rolipram and 2.7 U/ml adenosine deaminase, and the plate was incubated at room temperature for 30 minutes. The final concentrations of the compounds were: 100000, 10000, 1000, 100, 10, 1, 0.1 and 0 nM. The final concentrations of forskolin was 10 μM. The final concentration of 2Cl-IB-MECA was 5 nM. Intracellular cAMP concentration was detected with the cAMP dynamic 2 kit. cAMP-d2 and Anti-cAMP-Eu-Cryptate were diluted respectively with the cAMP lysis buffer at a ratio of 1:4. Each well was added with 12.5 μl of diluted cAMP-d2, followed by addition of 12.5 μl of diluted Anti-cAMP-Eu-Cryptate, and the plate was incubated at room temperature in the dark for 1 hour. The HTRF signal values were read by the PHERAstar multi-function microplate reader.

IC50 [1] [nM] | IC50 [2] [nM] | IC50 ratio (A1R/A2aR) [2] | IC50 [3] [nM] | IC50 ratio (A3R/A2aR) [3] | SMILES
0.9 |  |  |  |  | Nc1nnc(-c2ccc3ncc(F)cc3c2)c(-c2ccccc2)n1 [Example 24, 6-(3-Fluoroquinolin-6-yl)-5-phenyl-1,2,4-triazin-3-amine]
3.7 |  |  |  |  | Nc1nnc(-c2ccc3ncccc3c2)c(-c2ccc(F)cc2)n1 [Example 30, 5-(4-Fluorophenyl)-6-(quinolin-6-yl)-1,2,4-triazin-3-amine]
3 |  |  |  |  | Cc1cnc2ccc(-c3nnc(N)nc3-c3ccccc3)cc2c1 [Example 28, 6-(3-Methylquinolin-6-yl)-5-phenyl-1,2,4-triazin-3-amine]
3.6 |  |  |  |  | Cc1cc(-c2nnc(N)nc2-c2ccc(F)cc2)cc2cccnc12 [Example 8, 5-(4-Fluorophenyl)-6-(8-methylquinolin-6-yl)-1,2,4-triazin-3-amine]
3.5 |  |  |  |  | Nc1nnc(-c2ccc3ncncc3c2)c(-c2ccccc2)n1 [Example 29, 5-Phenyl-6-(quinazolin-6-yl)-1,2,4-triazin-3-amine]
1.8 |  |  |  |  | Nc1nnc(-c2cc(F)c3ncccc3c2)c(-c2cccc(F)c2)n1 [Example 26, 5-(3-Fluorophenyl)-6-(8-fluoroquinolin-6-yl)-1,2,4-triazin-3-amine]
1.6 |  |  |  |  | CCc1ccnc2c(F)cc(-c3nnc(N)nc3-c3ccccc3)cc12 [Example 47, 6-(4-Ethyl-8-fluoroquinolin-6-yl)-5-phenyl-1,2,4-triazin-3-amine]
158 |  |  |  |  | Nc1nnc(-c2ccc3ccccc3c2)c(-c2ccccc2)n1 [Example 13, 6-(Naphthalen-2-yl)-5-phenyl-1,2,4-triazin-3-amine, reference compound]
0.5 | 121 | 242 | > 10000 | >10^4 | Cc1cc(-c2nnc(N)nc2-c2ccccc2)cc2cccnc12 [Example 1, 6-(8-Methylquinolin-6-yl)-5-phenyl-1,2,4-triazin-3-amine]

The remaining lines, values behind:

SMILES | IC50 [1] [nM] | IC50 [2] [nM] | IC50 ratio (A1R/A2aR) [2] | IC50 [3] [nM] | IC50 ratio (A3R/A2aR) [3]
Nc1nnc(-c2ccc3nccc(C(F)F)c3c2)c(-c2ccc(F)cc2)n1 [Example 51, 6-(4-(Difluoromethyl)quinolin-6-yl)-5-(4-fluorophenyl)-1,2,4-triazin-3-amine] | 3.5 |  |  |  | 
Cc1cc(-c2nc(N)nnc2-c2ccc3nccc(C)c3c2)ccn1 [Example 48, 5-(2-Methylpyridin-4-yl)-6-(4-methylquinolin-6-yl)-1,2,4-triazin-3-amine] | 2.4 | 3280 | 1365 | > 10000 | >10^3
Cc1cc(-c2nnc(N)nc2-c2ccco2)cc2cccnc12 [Example 6, 5-(Furan-2-yl)-6-(8-methylquinolin-6-yl)-1,2,4-triazin-3-amine] | 1.3 |  |  |  | 
Nc1nnc(-c2ccc3nccc(C4CC4)c3c2)c(-c2ccc(F)cc2)n1 [Example 49, 6-(4-Cyclopropylquinolin-6-yl)-5-(4-fluorophenyl)-1,2,4-triazin-3-amine] | 2.5 |  |  |  | 
Cc1ncnc2c(F)cc(-c3nnc(N)nc3-c3ccc(F)cc3)cc12 [Example 50, 6-(8-Fluoro-4-methylquinazolin-6-yl)-5-(4-fluorophenyl)-1,2,4-triazin-3-amine] | 3.2 | 3260 | 1018 | > 10000 | >10^3
Cc1cc(-c2nnc(N)nc2-c2cccs2)cc2cccnc12 [Example 7, 6-(8-Methylquinolin-6-yl)-5-(thiophen-2-yl)-1,2,4-triazin-3-amine] | 3.1 |  |  |  | 
Nc1nnc(-c2ccc3nccc(Cl)c3c2)c(-c2ccc(F)cc2)n1 [Example 27, 6-(4-Chloroquinolin-6-yl)-5-(4-fluorophenyl)-1,2,4-triazin-3-amine] | 2.2 |  |  |  | 
